Data: patent US7511144B2, “Reverse hydroxamic acid derivatives” (Kaken Pharmaceutical Co., Ltd., priority 2001, dated 2009)
Read-outs that look alike come from different tables or passages of the source.

Assays:
Format in all cases: biochemical
Human MMP8 = target: T1, Human MMP8 (Homo sapiens, UniProt P22894); experiment: MMP8 inhibition experiment; details: concentration required for 50% inhibition of enzyme activity; read-out: IC50 value MMP-8
T1 construct: purchased Calbiochem 444229
Description: MMP inhibition experiment may be carried out using a fluorescent synthetic substrate according to, for example, the methods of Bickett et al. (D. Mark Bickett et al., Anal. Biochem., 1993, 212, 58-64) and Nagase et al. (H. Nagase et al., J. Biol. Chem., 1994, 269, 20952-20957). The methods of inhibition experiments carried out for various MMPs are described below.
Human MMP8 (Calbiochem #444229) in amount of 90 μL (30 ng) was activated by mixing with 10 μL of 10 mM APMA, followed by reaction for 1 hour at 37° C. This enzyme solution in amount of 10 μL was diluted to 90 μL with the assay buffer A, which was added to 90 μL of […] fluorescent substrate (MOCAc-Pro-Leu-Gly-Leu-A2pr(Dnp)-Ala-Arg-NH2, Peptide Institute, Inc., #3163-v) prepared in the assay buffer B, followed by reaction for 5 hours at 37° C.

Human MMP13 = target: T2, Human MMP13 (Homo sapiens, UniProt P45452); experiment: MMP13 inhibition experiment; details: concentration required for 50% inhibition of enzyme activity; read-out: IC50 value MMP-13
T2 construct: purchased Chemicon CC068
Description: Human MMP13 (Chemicon #CC068) in amount of 90 μL (200 ng) was activated by mixing with 10 μL of 10 mM APMA, followed by reaction for 1 hour at 37° C. This enzyme solution in amount of 0.6 μL was diluted to 90 μL with the assay buffer A, which was added to 90 μL of 20 μM fluorescent substrate (Dnp-Pro-Cha-Gly-Cys(Me)-His-Ala-Lys(Nma)-NH2) prepared in the assay buffer B, followed by reaction for 4 hours at 37° C.

Human MMP1 = target: T3, Human MMP1 (Homo sapiens, UniProt P03956); experiment: MMP1 inhibition experiment; details: read-out: IC50 value MMP-1
T3 construct: purchased Calbiochem 444208
T3 sequence (P03956 100-469): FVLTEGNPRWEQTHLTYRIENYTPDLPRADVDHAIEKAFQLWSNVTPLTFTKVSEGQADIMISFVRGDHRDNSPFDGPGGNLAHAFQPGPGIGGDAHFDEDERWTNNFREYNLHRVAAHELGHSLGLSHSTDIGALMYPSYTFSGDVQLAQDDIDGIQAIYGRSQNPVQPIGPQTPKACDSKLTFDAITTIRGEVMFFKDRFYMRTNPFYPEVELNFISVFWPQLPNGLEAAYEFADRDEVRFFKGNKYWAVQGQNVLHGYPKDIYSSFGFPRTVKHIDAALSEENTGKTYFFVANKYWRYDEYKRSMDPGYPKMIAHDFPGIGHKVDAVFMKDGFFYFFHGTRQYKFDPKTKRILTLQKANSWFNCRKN
Description: This enzyme solution in amount of 10 μL was diluted to 90 μL with the assay buffer A, which was added to 90 μL of 20 μM fluorescent substrate (Dnp-Pro-Cha(β-cyclohexylalanyl)-Gly-Cys(Me)-His-Ala-Lys(Nma)-NH2) prepared in the assay buffer B, followed by reaction for 5 hours at 37° C.

Human MMP3 = target: T4, Human MMP3 (Homo sapiens, UniProt P08254); experiment: MMP3 inhibition experiment; details: concentration required for 50% inhibition of enzyme activity; read-out: IC50 value MMP-3
T4 construct: purchased Calbiochem 444217
T4 sequence (P08254 100-272 limits assumed): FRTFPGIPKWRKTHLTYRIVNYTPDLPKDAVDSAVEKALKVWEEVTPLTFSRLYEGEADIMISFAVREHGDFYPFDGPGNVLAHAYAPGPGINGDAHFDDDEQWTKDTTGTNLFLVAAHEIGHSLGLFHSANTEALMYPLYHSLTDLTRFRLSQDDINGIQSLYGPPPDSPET
Procedure, shortened: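 Fluorescence-quenched substrate NFF-3 (MOCAc/Dnp peptide, 20 μM as prepared) cleaved by 5 ng human MMP3 over 5 hours at 37° C, with inhibition measured from substrate fluorescence.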

Human MMP9 = target: T5, Human MMP9 (Homo sapiens, UniProt P14780); experiment: MMP9 inhibition experiment; details: read-out: IC50 value MMP-9
T5 construct: purchased Calbiochem 444231
T5 sequence (P14780 107-707 limits assumed): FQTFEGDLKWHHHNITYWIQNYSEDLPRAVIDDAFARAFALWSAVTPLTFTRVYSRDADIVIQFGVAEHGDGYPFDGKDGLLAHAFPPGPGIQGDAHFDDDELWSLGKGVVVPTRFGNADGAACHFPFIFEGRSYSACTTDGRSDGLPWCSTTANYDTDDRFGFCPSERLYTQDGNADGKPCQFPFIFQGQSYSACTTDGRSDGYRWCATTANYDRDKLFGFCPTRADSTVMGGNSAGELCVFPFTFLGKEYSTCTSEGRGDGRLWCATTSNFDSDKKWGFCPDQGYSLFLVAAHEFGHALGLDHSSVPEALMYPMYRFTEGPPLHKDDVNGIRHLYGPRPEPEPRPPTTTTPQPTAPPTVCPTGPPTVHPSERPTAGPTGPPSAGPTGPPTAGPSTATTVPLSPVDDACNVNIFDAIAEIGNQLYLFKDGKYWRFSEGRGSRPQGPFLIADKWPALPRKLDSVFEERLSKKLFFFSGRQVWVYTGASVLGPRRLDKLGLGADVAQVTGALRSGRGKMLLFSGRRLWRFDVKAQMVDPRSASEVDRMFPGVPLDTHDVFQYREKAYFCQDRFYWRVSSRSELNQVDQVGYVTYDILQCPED
Description: This enzyme solution in amount of 1 μL was diluted to 90 μL with the assay buffer A, which was added to 90 μL of 20 μM fluorescent substrate (Dnp-Pro-Cha-Gly-Cys(Me)-His-Ala-Lys(Nma)-NH2) prepared in the assay buffer B, followed by reaction for 4 hours at 37° C.

TACE = target: T6, TACE (Homo sapiens, UniProt P78536); experiment: TACE inhibition experiment (in vitro)
T6 construct: made in house; host or cells: mammalian cells or insect cells
T6 sequence (P78536 215-824): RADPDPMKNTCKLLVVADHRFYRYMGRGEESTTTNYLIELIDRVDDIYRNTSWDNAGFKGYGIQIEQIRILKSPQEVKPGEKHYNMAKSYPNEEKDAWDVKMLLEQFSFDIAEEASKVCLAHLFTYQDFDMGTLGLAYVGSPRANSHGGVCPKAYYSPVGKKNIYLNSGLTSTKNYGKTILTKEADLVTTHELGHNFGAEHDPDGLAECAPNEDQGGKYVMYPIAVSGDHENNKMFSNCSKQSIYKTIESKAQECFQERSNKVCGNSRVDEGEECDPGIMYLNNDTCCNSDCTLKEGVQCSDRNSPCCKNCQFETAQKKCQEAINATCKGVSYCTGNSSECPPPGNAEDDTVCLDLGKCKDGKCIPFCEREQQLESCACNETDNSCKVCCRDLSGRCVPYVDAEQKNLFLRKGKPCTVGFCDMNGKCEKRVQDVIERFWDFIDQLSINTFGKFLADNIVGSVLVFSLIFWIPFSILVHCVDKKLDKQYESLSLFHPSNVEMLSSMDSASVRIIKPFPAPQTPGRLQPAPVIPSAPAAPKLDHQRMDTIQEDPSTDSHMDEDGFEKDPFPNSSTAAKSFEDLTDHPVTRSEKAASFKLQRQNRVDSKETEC
Description: TACE inhibition experiments were conducted using TACE obtained as above as an enzyme and by measuring TACE activity in the presence or absence of a test substance using Nma (N-metylanthranilic acid)-[sequence]Dnp(dinitrophenyl)-D-Arg-NH2 being a fluorescent synthetic substrate which contains the sequence of cleavage site of membrane-bound TNF by TACE, as a substrate.
More specifically, 14 units of an enzyme solution (1 unit is defined as the amount of enzyme which degrades 1 pmol of the substrate per minute at 25° C.) which was prepared in 90 μL of assay buffer A (50 mM Tris-HCl buffer (pH 7.5) containing 200 mM sodium chloride, 5 mM calcium chloride, 10 μM zinc sulfate, 0.004% sodium azide and 2 mg/mL bovine serum albumin) and 90 μL of 20 μM fluorescent synthetic substrate prepared in assay buffer B (50 mM Tris-HCl buffer (pH 7.5) containing 200 mM sodium chloride, 5 mM calcium chloride, 10 μM zinc sulfate, 0.004% sodium azide and 0.05% PLURONIC F-68) are mixed and reacted for 2 hours at 37° C.

Human MMP2 = target: T7, Human MMP2 (Homo sapiens, UniProt P08253); experiment: MMP2 inhibition experiment; details: concentration required for 50% inhibition of enzyme activity; read-out: IC50 value MMP-2
T7 construct: purchased Calbiochem 444213
T7 sequence (P08253 110-660): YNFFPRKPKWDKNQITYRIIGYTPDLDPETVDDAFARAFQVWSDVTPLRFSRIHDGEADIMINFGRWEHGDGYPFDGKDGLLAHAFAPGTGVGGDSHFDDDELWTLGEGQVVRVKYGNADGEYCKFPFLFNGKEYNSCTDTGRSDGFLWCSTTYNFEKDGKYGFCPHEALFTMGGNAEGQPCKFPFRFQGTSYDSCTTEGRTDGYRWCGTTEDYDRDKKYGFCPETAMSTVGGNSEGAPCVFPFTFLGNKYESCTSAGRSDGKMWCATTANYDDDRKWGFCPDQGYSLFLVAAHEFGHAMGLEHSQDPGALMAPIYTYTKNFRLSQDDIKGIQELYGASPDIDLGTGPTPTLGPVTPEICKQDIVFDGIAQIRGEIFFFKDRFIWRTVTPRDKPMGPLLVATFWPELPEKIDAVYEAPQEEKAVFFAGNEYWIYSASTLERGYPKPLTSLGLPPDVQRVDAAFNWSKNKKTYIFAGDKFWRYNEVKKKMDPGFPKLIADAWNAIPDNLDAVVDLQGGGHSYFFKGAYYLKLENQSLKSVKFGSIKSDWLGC
Description: This enzyme solution in amount of 10 μL was diluted to 90 μL with the assay buffer A, which was added to 90 μL of 20 μM fluorescent substrate (MOCAc((7-methoxycoumarin-4-yl)acetyl)-Pro-Leu-Gly-Leu-A2pr(Dnp)-Ala-Arg-NH2, Peptide Institute, Inc., #3163-v) prepared in the assay buffer B, followed by reaction for 5 hours at 37° C.

Human MMP14 = target: T8, Human MMP14 (Homo sapiens, UniProt P50281); experiment: MMP14 inhibition experiment; details: concentration required for 50% inhibition of enzyme activity; read-out: IC50 value MMP-14
T8 construct: purchased Biogenesis or Calbiochem 5980-1461 or 475935
Procedure, shortened: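 Fluorescence assay: substrate Dnp-Pro-Cha-Gly-Cys(Me)-His-Ala-Lys(Nma)-NH2 (20 μM before equal-volume mixing) incubated at 37° C for 5 hours with 4 ng human MMP14.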

Human MMP17 = target: T9, Human MMP17 (Homo sapiens, UniProt Q9ULZ9); experiment: MMP17 inhibition test; details: concentration required for 50% inhibition of enzyme activity; read-out: IC50 value MMP-17
T9 construct: purchased Calbiochem 475940
T9 sequence (Q9ULZ9 126-300 limits assumed): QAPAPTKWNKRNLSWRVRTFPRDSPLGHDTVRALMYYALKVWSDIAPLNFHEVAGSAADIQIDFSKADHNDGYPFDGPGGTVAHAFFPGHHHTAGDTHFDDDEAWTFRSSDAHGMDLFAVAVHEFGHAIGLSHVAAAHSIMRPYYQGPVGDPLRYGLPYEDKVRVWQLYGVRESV

[1] = concentration required for 50% inhibition of enzyme activity

T1 sequence (P22894 101-467): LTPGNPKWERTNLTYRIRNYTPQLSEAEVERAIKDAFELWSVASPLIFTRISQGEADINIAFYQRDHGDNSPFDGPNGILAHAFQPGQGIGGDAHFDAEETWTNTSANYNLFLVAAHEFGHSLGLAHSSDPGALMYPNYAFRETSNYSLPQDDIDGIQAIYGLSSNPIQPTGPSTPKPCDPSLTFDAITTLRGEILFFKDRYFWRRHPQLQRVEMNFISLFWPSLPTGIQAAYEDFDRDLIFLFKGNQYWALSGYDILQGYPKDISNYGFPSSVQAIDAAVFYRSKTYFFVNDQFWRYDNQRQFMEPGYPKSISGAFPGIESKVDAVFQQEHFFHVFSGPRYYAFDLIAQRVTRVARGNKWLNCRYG

Row | SMILES | IC50 (Human MMP8) [µM] | IC50 (Human MMP13) [µM] | IC50 (Human MMP1) [µM] | IC50 (Human MMP3) [µM] | IC50 (Human MMP9) [µM] | IC50 (TACE) [µM] | IC50 (Human MMP2) [µM] | IC50 (Human MMP14) [µM] | IC50 (Human MMP17) [µM] | IC50 (Human MMP9; [1]) [µM] | IC50 (TACE; [1]) [µM]
1 | O=CN(O)C(C=C1CCC(=NO)CC1)CS(=O)(=O)c1ccc(OCc2ccc3ccccc3n2)cc1 (stereo not shown) [Example I-86] | > 100 | 22 | > 100 | 61 | 70 | 0.42 | 5.8 | 70 | 31 |  | 
2 | Cc1cc(COc2ccc(S(=O)(=O)CC(C=C3CCOCC3)N(O)C=O)cc2)cc(C)n1 (stereo not shown) [Example I-115] | 6 | 8 | > 100 | 40 | > 100 | 0.14 | 4 | > 100 | 42 |  | 
3 | CC(=O)N1CCC(=CC(CS(=O)(=O)c2ccc(OCc3cc(C)nc4ccccc34)cc2)N(O)C=O)CC1 (stereo not shown) [Example I-41] | 50 | 50 | > 100 | 4.8 | > 100 | 0.0031 | 41 | > 100 | 3.7 |  | 
4 | Cc1cncc(C(CS(=O)(=O)c2ccc(OCc3cc(C)nc4ccc(F)cc34)cc2)N(O)C=O)c1 (stereo not shown) [Example I-80] | 27 | 23 | > 100 | 4 | > 100 | 0.0045 | 18 | > 100 | 7 |  | 
5 | Cc1cc(COc2ccc(S(=O)(=O)CC(C3CCCN(C(=O)c4ccccc4)C3)N(O)C=O)cc2)c2ccccc2n1 (stereo not shown) [Example I-131] | 4.1 | 3.2 | 47 | 0.2 | 50 | 0.02 | 4.4 | 22 | 0.1 |  | 
6 | Cc1cc(COc2ccc(S(=O)(=O)CC(C3CCOCC3)N(O)C=O)cc2)c2ccccc2n1 (stereo not shown) [Example I-49] | 9 | 30 | > 100 | 2 | > 100 | 0.013 | 24 | 90 | 0.61 |  | 
7 | Cc1cc(COc2ccc(S(=O)(=O)CC(c3cccnc3C)N(O)C=O)cc2)c2ccccc2n1 (stereo not shown) [Example I-67] | 18 | 30 | > 100 | 2.7 | > 100 | 0.003 | 20 | 70 | 1.4 |  | 
8 | Cc1cc(COc2ccc(S(=O)(=O)CC(CN3CCN(S(C)(=O)=O)CC3)N(O)C=O)cc2)c2ccccc2n1 (stereo not shown) [Example I-52] | 42 | 40 | > 100 | 1 | > 100 | 0.012 | 22 | > 100 | 1.6 |  | 
9 | Cc1cc(COc2ccc(S(=O)(=O)CC(C3CCC4(CC3)OCCO4)N(O)C=O)cc2)c2ccccc2n1 (stereo not shown) [Example I-28, N-{1-(1,4-dioxaspiro[4.5]dec-8-yl)-2-[4-(2-methylquinolin-4-ylmethoxy)benzenesulfonyl]ethyl}-N-hydroxyformamide] | 9 | 3.3 | 65 | 0.28 |  |  | 7 | 30 | 0.22 | 40 | 0.015
10 | CCC(CC)CN1CCC(=CC(CS(=O)(=O)c2ccc(OCc3cc(C)nc4ccccc34)cc2)N(O)C=O)CC1 (stereo not shown) [Example I-44] | 42 | 20 | > 100 | 3 | > 100 | 0.0078 | 6.5 | 60 | 1.1 |  | 
11 | CCN1CCC(=CC(CS(=O)(=O)c2ccc(OCc3cc(C)nc4ccccc34)cc2)N(O)C=O)CC1 (stereo not shown) [Example I-30] | > 100 | > 100 | > 100 | 24 | > 100 | 0.012 | 83 | > 100 | 8 |  | 
12 | Cc1ccc2nc(C)cc(COc3ccc(S(=O)(=O)CC(C=C4CCOCC4)N(O)C=O)cc3)c2c1 (stereo not shown) [Example I-74, N-{2-[4-(2.6-dimethylquinolin-4-ylmethoxy)benzenesulfonyl]-1-(tetrahydropyran-4-ylidenemethyl)ethyl}-N-hydroxyformamide] | 65 | 20 | 70 | 6 | 50 | 0.005 | 41 | 60 | 10 |  | 
13 | COCc1cc(COc2ccc(S(=O)(=O)CC(C=C3CCOCC3)N(O)C=O)cc2)cc(C)n1 (stereo not shown) [Example I-116] | 28 | 39 | > 100 | 70 | > 100 | 0.16 | 26 | > 100 | 42 |  | 
14 | Cc1cc(COc2ccc(S(=O)(=O)CC(C=C3CCOCC3)N(O)C=O)cc2)c2ccccc2n1 (single isomer, unassigned) [Example I-33, N-hydroxy-N-{2-[4-(2-methylquinolin-4-ylmethoxy)benzenesulfonyl]-1-(tetrahydropyran-4-ylidenemethyl)ethyl}formamide] | 23 | 32 | > 100 | 4.2 | > 100 |  | 28 | 77 | 2.2 |  | 
15 | Cc1cc(COc2ccc(S(=O)(=O)CC(C=C3CCOCC3)N(O)C=O)cc2)c2ccccc2n1 (stereo not shown) [Example I-9, N-Hydroxy-N-{2-[4-(2-methylquinolin-4-ylmethoxy)benzenesulfonyl]-1-(tetrahydropyran-4-ylidenemethyl)ethyl}formamide] | 37.5 | 25 | > 100 | 5.5 |  |  | 60 | 70 | 3 | 53 | 
